Data: patent US20040116501A1, “Treatment of nonallergic rhinitis by selective phosphodiesterase 4 inhibitors” (priority 2002, published 2004)
Where two headings read alike, the source gives them in different places. Marks after values point to notes of the source that are not given here.

Tested on: acetic acid-induced vascular permeability of the rat nasal mucosa
Test: Acetic acid-induced vascular permeability in Sprague-Dawley rats (nonallergic rhinitis model), Evans Blue in nasal perfusate
Format: in vivo
Details: for inhibition of the vascular permeability of the nasal mucosa (in words): test range from 0.1 to 10 μmol/l
Protocol: Effect on Acetic Acid-Induced Vascular Permeability in Sprague-Dawley Rats (Nonallergic Rhinitis Model)
Male Sprague-Dawley rats weighing 280-320 g are anesthetized on the day of the experiment by i.p. injection of 0.9-1 ml/animal of a 2.5% strength thiopental sodium solution. The trachea is then exposed below the epiglottis and incised at two points. A polyethylene catheter is pushed into the lower opening in the trachea in the direction of the lung (orthograde) and secured by tying with twine in order to maintain breathing. A second polyethylene catheter with LUER lock connector (cut from Original-Perfusor® line) for retrograde perfusion of the nasal cavity is introduced into the upper opening and advanced retrogradely as far as the inner opening of the choanae so that the solution can flow through the nasal cavity. 8 animals in total are placed individually on their backs on specially fabricated plastic tables in such a way that the perfusion fluid can drip out of the nostrils and be collected in the fraction collector.
During this, half of the head looks with the nose beyond the edge of the table.
A polyethylene infusion line is connected to the LUER lock connector of the catheter which has been secured retrogradely in each animal and is immersed in the container with the prepared perfusion fluid via a roller pump. The roller pump is adjusted to a constant delivery of 0.5 ml of fluid/min. A red lamp is switched on over the animals for warming.
Initial perfusion of the nasal cavity with PBS for 30 min serves to wash out the nasal mucus. During this, the fraction collector is switched on and the perfusate dripping out of the nostrils is collected in 15 min fractions (2 fractions). The second fraction is used as normal value for the experiment.
The test substances are administered topically before administration of acetic acid. They are added to the perfusion medium (PBS, Dulbecco) in molar concentrations. 4.6 mg of AWD 12-281 or other test substances such as AWD 12-322 or AWD 12-298 are diluted in accordance with their molecular weight (4.6 mg of AWD 12-322 or 5.2 mg of AWD 12-298) with 1 ml of 1N NaOH and then made up to 10 ml with double-distilled H2O. […] These solutions are perfused through the noses using the roller pump for 30 min, and the 2 samples obtained from the fraction collector are discarded. The roller pump is then switched off.
After perfusion with the substance, the plasma marker Evans Blue (1% strength solution in PBS) is injected, 1 ml per animal, into the jugular vein and then 0.1% strength acetic acid solution is forced through tubings and roller pumps into the nasal cavity until 2-3 drops of acetic acid solution drip from the conchae. The roller pumps are then switched off. The acetic acid solution is left in the nasal cavity for 30 minutes in order to ensure complete permeation of the nasal mucosa.
After an exposure time of 30 minutes, the roller pumps and the fraction collector are switched on again, and the 0.1% strength acetic acid solution in PBS is perfused retrogradely (with a constant delivery of 0.5 ml liquid/min) through the nasal cavity for 60 min. During this, the perfusate dripping out of the nostrils is continuously received in glass tubes and collected in 4 periods of 15 min. Aliquots of the samples including the control samples are placed on microtiter plates and measured using a Digiscan photometer at a wavelength of 620 nm relative to the control sample (blank). […] The Evans Blue content in 4 collected fractions, each selected over 15 minutes, of the perfusate flowing out in μg/ml is calculated by formula 1: [formula]
tn time interval (15 min)
yn Evans Blue content per time interval (μg/l per 15 min)
The means and standard deviations (x±SD) of the AUC′ for individual animals in a control group or a group of animals pretreated with substance are calculated. The inhibition of the vascular permeability is stated in percent.

[1] = acetic acid-induced rhinitis in rats
[2] = test substance concentration 0.1 μmol/l, single 30-minute nasal perfusion before 0.1% acetic acid, rat
[3] = test substance concentration 1 μmol/l, single 30-minute nasal perfusion before 0.1% acetic acid, rat
[4] = test substance concentration 3 μmol/l, single 30-minute nasal perfusion before 0.1% acetic acid, rat
[5] = test substance concentration 10 μmol/l, single 30-minute nasal perfusion before 0.1% acetic acid, rat
[6] = test substance concentration 1 μmol/l, single 30-minute nasal perfusion before 0.1% acetic acid, rat, vs vehicle control
[7] = test substance concentration 3 μmol/l, single 30-minute nasal perfusion before 0.1% acetic acid, rat, vs vehicle control
[8] = test substance concentration 10 μmol/l, single 30-minute nasal perfusion before 0.1% acetic acid, rat, vs vehicle control

| SMILES | inhibition of the vascular permeability of the nasal mucosa (in words) [1] | Evans Blue content (μg/ml) in the perfusate AUC′ x ± SD [2] | Evans Blue content (μg/ml) in the perfusate AUC′ x ± SD [3] | Evans Blue content (μg/ml) in the perfusate AUC′ x ± SD [4] | Evans Blue content (μg/ml) in the perfusate AUC′ x ± SD [5] | % Inhibition [6] | % Inhibition [7] | % Inhibition [8] | other results |
| --- | --- | --- | --- | --- | --- | --- | --- | --- | --- |
| O=C(Nc1c(Cl)cncc1Cl)C(=O)c1cn(Cc2ccc(F)cc2)c2ccc(O)cc12 [AWD 12-281, N-(3,5-dichloropyrid-4-yl)-[1-(4-fluorobenzyl)-5-hydroxyindol-3-yl]glyoxylamide] | concentration-dependent inhibition | 10.88 ± 8.45 µg/mL | 5.96 ± 7.97 µg/mL | 6.41 ± 5.81 µg/mL | 3.68 ± 4.40 µg/mL | – | – | – | inhibition at 0.1 µM (0.5 h, test substance concentration 0.1 μmol/l, single 30-minute nasal perfusion before 0.1% acetic acid, rat, vs vehicle control, read-out: % Inhibition): 29%; inhibition at 1 µM (0.5 h, test substance concentration 1 μmol/l, single 30-minute nasal perfusion before 0.1% acetic acid, rat, vs vehicle control, read-out: % Inhibition): 61%; inhibition at 3 µM (0.5 h, test substance concentration 3 μmol/l, single 30-minute nasal perfusion before 0.1% acetic acid, rat, vs vehicle control): 58%; inhibition at 10 µM (0.5 h, test substance concentration 10 μmol/l, single 30-minute nasal perfusion before 0.1% acetic acid, rat, vs vehicle control, read-out: % Inhibition): 76% |
| O=C(Nc1c(Cl)cncc1Cl)C(=O)c1cn(Cc2ccc(O)cc2)c2ccc(O)cc12 [AWD 12-322, N-(3,5-dichloropyrid-4-yl)-2-[5-hydroxy-1-(4-hydroxybenzyl)-1H-indol-3-yl]glyoxylamide] | concentration-dependent inhibition | 13.77 ± 6.65 µg/mL | 7.25 ± 6.77 µg/mL | – | 2.62 ± 3.44 µg/mL | – | – | – | inhibition at 0.1 µM (Rattus norvegicus, 0.5 h): 5%; inhibition at 1 µM (Rattus norvegicus, 0.5 h): 50%; inhibition at 10 µM (Rattus norvegicus, 0.5 h): 82% |
| CCOC(C)=O.O=C(Nc1c(Cl)cncc1Cl)C(=O)c1cn(Cc2c(F)cccc2F)c2ccc(O)cc12.O=C(Nc1c(Cl)cncc1Cl)C(=O)c1cn(Cc2c(F)cccc2F)c2ccc(O)cc12 [AWD 12-298, N-(3,5-dichloropyrid-4-yl)-[1-(2,6-difluorobenzyl)-5-hydroxyindol-3-yl]glyoxylamide semi-ethyl acetate] | – | – | 17.72 ± 9.31 µg/mL | 8.43 ± 5.56 µg/mL | 6.03 ± 7.11 µg/mL | 0% | 49% | 64* % | activity in the model of acetic acid-induced rhinitis (in words) (concentration range from 3 to 10 μmol/l, rats): concentration-dependent activity |
| C[C@H]1C[C@H]2[C@@H]3CCC4=CC(=O)C=C[C@]4(C)[C@@]3(Cl)[C@@H](O)C[C@]2(C)[C@@]1(O)C(=O)CO [Beclomethasone, beclomethasone, reference compound] | – | 4.93 ± 3.19 µg/mL | 0.93 ± 1.80 µg/mL | 5.51 ± 7.12 µg/mL | 4.86 ± 8.08 µg/mL | 95** % | 68* % | 81** % | effect against the vascular plasma permeability induced by acetic acid in the nasal mucosa (in words) (rat rhinitis model, summary statement): dose-dependent effect; activity compared with the PDE4 inhibitors (in words) (standard therapeutic agents, acetic acid-induced rhinitis in rats): approximately the same activity; Evans Blue content (μg/ml) in the perfusate AUC′ x ± SD (test substance concentration 0.01 μmol/l, single 30-minute nasal perfusion before 0.1% acetic acid, rat): 10.70 ± 2.38 µg/mL; % Inhibition (test substance concentration 0.01 μmol/l, single 30-minute nasal perfusion before 0.1% acetic acid, rat, vs vehicle control): 38%; % Inhibition (test substance concentration 0.1 μmol/l, single 30-minute nasal perfusion before 0.1% acetic acid, rat, vs vehicle control): 72* % |
